Structures can show the parent of a compound that is named as a salt. Where two headings read alike, the source gives them in different places.
Columns and labels:
male Wistar rats [1] = assay: Somatic signs of the nicotine withdrawal syndrome; assay type: in vivo, rat; conditions: for total number of somatic signs: 24 h post pump removal, 12.5 h postbupropion
Description: Rats were placed individually in transparent plastic cylindrical containers (30×38 cm) in which they could move freely. Subjects were habituated to the containers for 10 min each day over 3 days before the first test session. During the test sessions the rats were observed blindly by an experienced observer for 10 min and the frequency of the following signs was recorded based on a checklist of nicotine abstinence signs (Hildebrand et al. 1999; Watkins et al. 2000; Malin 2001): body shakes, chews, cheek tremors, escape attempts, eye blinks, foot licks, gasps, genital licks, head shakes, ptosis, scratches, teeth chattering, writhes and yawns. Multiple successive counts of any sign required a distinct pause between episodes. Ptosis, if present continuously, was only counted once per minute. For statistical analyses, the total number of somatic signs was defined as the sum of individual occurrences of the above mentioned withdrawal signs. Further, the categories of “abdominal constrictions” included gasps and writhes; “facial fasciculation” included cheek tremors, chews, and teeth chattering; and “miscellaneous other signs” included shakes, escape attempts, licks, scratches, and yawns.
Separate drug-naive rats were prepared with osmotic minipumps containing nicotine (3.16 mg/kg per day for 7 days) dissolved in saline. […] Further, this nicotine dose was selected to allow direct comparison of the effects of bupropion on somatic signs (present experiment 4) and on reward threshold elevations (experiment 3 described above) observed during nicotine withdrawal. To induce the somatic signs of nicotine withdrawal the minipumps were removed 6 days and 18 h after implantation. The behavioral observations were conducted 6, 12 and 24 h after the removal of the minipumps. The rats were injected with bupropion (0, 5, 10, 20, 40 mg/kg, IP; n=6-8), 30 min prior to the 12-h time point. The selection of the time points was based on the time-course of the expression of the somatic signs after the termination of nicotine exposure (Epping-Jordan et al. 1998; Harrison et al. 2001a; Semenova and Markou 2003; Skjei and Markou 2003).

male Wistar rats [2] = assay: ICSS thresholds during and after withdrawal from chronic nicotine, bupropion; assay type: in vivo, rat
Text: Trials began with an electrical stimulus followed by a 7.5-s response window within which the animal could make a response to receive a second contingent stimulus identical to the initial noncontingent stimulus. A response during this 7.5-s window was considered a positive response, whereas the lack of a response was considered a negative response. Additional responses during a 2-s period immediately following a positive response had no consequence. The intertrial interval (ITI) that followed either a positive response or the end of the response window (in the case of a negative response) ranged from 7.5 to 12.5 s with an average duration of 10 s. […] Subjects then were tested on a current-threshold procedure in which stimulus intensities were varied during four alternating descending and ascending series with a step size of […]. Blocks of three trials were offered at each current step with the starting current of the first descending series set at […] above the subjects' individual baseline thresholds estimated at the end of preliminary training. […] An ascending series was terminated after two consecutive blocks of trials during which the animal made positive responses on at least two out of the three trials or after 15 successive increments were presented. The mean of the four current thresholds from the alternating series was defined as the subject's ICSS threshold for that session. A series was terminated after either 15 stimulus increments (or decrements) had occurred, or after the determination of the threshold for the series (see below). Each test session typically lasted 30 min.
Naive animals were prepared with osmotic minipumps containing either an individualized nicotine solution (3.16 mg/kg per day, free base) or saline. […] After implantation of the minipumps, thresholds were assessed daily thereafter to assess the effects of chronic nicotine exposure on reward thresholds. Seven days (exactly seven 24-h periods) after pump insertion, the pumps were removed in order to precipitate the nicotine withdrawal syndrome. ICSS thresholds were measured 12, 18, 24, 36, 48 and 72 h after pump removal. Animals were injected with bupropion (0, 10, 20, 40 mg/kg IP; n=8-11) 30 min prior to the 18-h time point.

male Wistar rats [3] = assay: ICSS reward thresholds under baseline conditions, bupropion; assay type: in vivo, rat; conditions: bupropion 10-60 mg/kg IP, all doses tested, dose-dependent up to 40 mg/kg
Description: For each quarter turn, subjects received a 500 ms train of 0.1 ms cathodal square wave pulses at a frequency of 100 Hz. After successful acquisition of the response, defined as 200 consecutive reinforcements within allotted time period (usually <20 min) subjects were trained on a modification of the Kornetsky and Esposito discrete-trial currentthreshold procedure (Kornetsky and Esposito 1979), as described previously by Markou and Koob (1992).
Trials began with an electrical stimulus followed by a 7.5-s response window within which the animal could make a response to receive a second contingent stimulus identical to the initial noncontingent stimulus. A response during this 7.5-s window was considered a positive response, whereas the lack of a response was considered a negative response. Additional responses during a 2-s period immediately following a positive response had no consequence. The intertrial interval (ITI) that followed either a positive response or the end of the response window (in the case of a negative response) ranged from 7.5 to 12.5 s with an average duration of 10 s. […] Subjects then were tested on a current-threshold procedure in which stimulus intensities were varied during four alternating descending and ascending series with a step size of 5 mA. […]

male Wistar rats [4] = system: male Wistar rats
Description: Trials began with an electrical stimulus followed by a 7.5-s response window within which the animal could make a response to receive a second contingent stimulus identical to the initial noncontingent stimulus. A response during this 7.5-s window was considered a positive response, whereas the lack of a response was considered a negative response. Additional responses during a 2-s period immediately following a positive response had no consequence. The intertrial interval (ITI) that followed either a positive response or the end of the response window (in the case of a negative response) ranged from 7.5 to 12.5 s with an average duration of 10 s. […] Subjects then were tested on a current-threshold procedure in which stimulus intensities were varied during four alternating descending and ascending series with a step size of 5 mA. Blocks of three trials were offered at each current step with the starting current of the first descending series set at 30-40 mA above the subjects' individual baseline thresholds estimated at the end of preliminary training. […] An ascending series was terminated after two consecutive blocks of trials during which the animal made positive responses on at least two out of the three trials or after 15 successive increments were presented. The mean of the four current thresholds from the alternating series was defined as the subject's ICSS threshold for that session. A series was terminated after either 15 stimulus increments (or decrements) had occurred, or after the determination of the threshold for the series (see below). Each test session typically lasted 30 min.

dopamine transporter = target: T1, dopamine transporter (Homo sapiens, UniProt Q01959); conditions: therapeutically effective doses, humans (Meyer et al. 2002); cited from earlier work
T1 construct: host or cells: living human brain (in vivo imaging)

rats = conditions: 28-day treatment, 20 mg/kg (McCarter and Kokkinidis 1988); cited from earlier work

T1 sequence (Q01959 whole entry): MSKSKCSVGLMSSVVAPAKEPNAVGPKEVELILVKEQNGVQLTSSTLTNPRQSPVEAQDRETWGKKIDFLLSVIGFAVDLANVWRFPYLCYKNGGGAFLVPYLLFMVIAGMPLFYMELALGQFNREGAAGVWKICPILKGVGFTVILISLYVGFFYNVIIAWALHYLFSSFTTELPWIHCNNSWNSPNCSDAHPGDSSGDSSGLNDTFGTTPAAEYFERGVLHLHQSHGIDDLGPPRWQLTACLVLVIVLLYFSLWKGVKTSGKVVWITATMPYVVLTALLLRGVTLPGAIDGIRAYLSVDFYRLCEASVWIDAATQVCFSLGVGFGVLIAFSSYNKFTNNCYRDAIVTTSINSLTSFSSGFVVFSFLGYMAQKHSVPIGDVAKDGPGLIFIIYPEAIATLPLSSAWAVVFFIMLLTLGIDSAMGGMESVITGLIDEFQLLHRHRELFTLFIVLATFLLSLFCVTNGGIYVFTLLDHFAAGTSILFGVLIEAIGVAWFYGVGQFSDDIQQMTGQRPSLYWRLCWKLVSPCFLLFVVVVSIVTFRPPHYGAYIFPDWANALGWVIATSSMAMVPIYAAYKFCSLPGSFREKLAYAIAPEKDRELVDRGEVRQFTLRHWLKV

CC(NC(C)(C)C)C(=O)c1cccc(Cl)c1 (stereo not drawn) [bupropion, Bupropion hydrochloride]
long-term effect on somatic signs (male Wistar rats [1]; acute bupropion, 12.5 h): has no long-term (12.5 h) effect on the expression of the somatic signs of nicotine withdrawal
total number of somatic signs (male Wistar rats [1]; bupropion 5 mg/kg): 18.6±4
total number of somatic signs (male Wistar rats [1]; bupropion 10 mg/kg): 17.1±4.6
total number of somatic signs (male Wistar rats [1]; bupropion 20 mg/kg): 14.1±2.2
total number of somatic signs (male Wistar rats [1]; bupropion 40 mg/kg): 14.6±2.6
abdominal constrictions (writhes and gasps) (male Wistar rats [1]; bupropion 10-40 mg/kg, 12-h withdrawal time point): reversed the withdrawal-induced increase in abdominal constrictions
total somatic signs (male Wistar rats [1]; bupropion 20-40 mg/kg, 30 min prior to the 12-h withdrawal timepoint): resulted in a reversal of the expression of total somatic signs
area under the curve of the threshold data, 72-h withdrawal period (male Wistar rats [2]; bupropion 40 mg/kg, nicotine-pretreated animals): completely reversed
reward thresholds (male Wistar rats [2]; bupropion 40 mg/kg, nicotine-pretreated animals, 24 h time point): still exhibited a significant (P<0.001) reduction in reward thresholds
reward thresholds (male Wistar rats [2]; bupropion 10, 20, 40 mg/kg, thirty minutes after administration (18-h time point), nicotine- or saline-pretreated): significant and dose-dependent lowering of reward thresholds at all doses
reduction in threshold (male Wistar rats [2]; bupropion, saline pretreated animals, 24 h): short-lived and completely reversed at the next time point tested
brain reward thresholds (male Wistar rats [3]): lowered brain reward thresholds compared to the vehicle conditions
brain reward thresholds (male Wistar rats [4]; bupropion 5 mg/kg alone): without effect on reward thresholds when given alone
reward-enhancing effects of acute nicotine (male Wistar rats [4]; bupropion 5 mg/kg with nicotine 0.25 mg/kg): completely reversed the reward-enhancing effects of acute nicotine
brain reward thresholds (male Wistar rats [4]; bupropion 10 and 20 mg/kg in combination with nicotine 0.25 mg/kg): resulted in threshold lowerings that were not significantly different from threshold lowerings induced by nicotine administration alone
brain reward thresholds (male Wistar rats [4]; bupropion 10 and 20 mg/kg, saline co-treated): lowered brain reward thresholds in animals that were co-treated with saline
occupancy at the dopamine transporter (dopamine transporter): 22%
rate of responding for ICSS (rats): had no effect on the rate of responding for ICSS

— US8354447B2, “mGLU receptors antagonists for treating disorders associated with mGLU receptors including addiction and depression” (The Scripps Research Institute, priority 2002, dated 2013)
